Reference: ChEMBL document CHEMBL4665624, “Synthesis of 5-(4-(1H-phenanthro[9,10-d]imidazol-2-yl)benzylidene)thiazolidine-2,4-dione as promising DNA and serum albumin-binding agents and evaluation of antitumor activity” (Eur J Med Chem, 2019)
Active and inactive are the calls of the source. No cut-off for these calls is given here.

Experiments:
SF-268 = test: Antitumor activity against human SF268 cells assessed as cell growth inhibition at 10 uM incubated for 48 hrs by sulforhodamine B assay; format: functional; conditions: read-out: GI
HEK293 [1] = test: Cytotoxicity against human HEK293 assessed as reduction in cell viability at 10 uM after 48 hrs by MTT assay; format: cell-based; conditions: hek293, 48 h
NCI-H522 = test: Antitumor activity against human NCI-H522 cells assessed as cell growth inhibition at 10 uM incubated for 48 hrs by sulforhodamine B assay; format: functional; conditions: read-out: GI
[2] = Ratio of Kb for human DNA in blood to Kb for calf thymus DNA
HCT-15 = test: Antitumor activity against human HCT15 cells assessed as cell growth inhibition at 10 uM incubated for 48 hrs by sulforhodamine B assay; format: functional; conditions: read-out: GI
A549 [3] = test: Cytotoxicity against human A549/ATCC assessed as reduction in cell viability at 100 uM after 48 hrs by MTT assay; format: functional
Albumin [4] = target: T1, Albumin (Homo sapiens, UniProt P02768); test: Binding affinity to human serum albumin assessed as increase in peak absorption intensity at 280 nm at 0-7 uM by UV-Vis absorption spectroscopy; format: ADME, cell-free; conditions: 0.28 µM
T1 sequence (P02768 whole entry): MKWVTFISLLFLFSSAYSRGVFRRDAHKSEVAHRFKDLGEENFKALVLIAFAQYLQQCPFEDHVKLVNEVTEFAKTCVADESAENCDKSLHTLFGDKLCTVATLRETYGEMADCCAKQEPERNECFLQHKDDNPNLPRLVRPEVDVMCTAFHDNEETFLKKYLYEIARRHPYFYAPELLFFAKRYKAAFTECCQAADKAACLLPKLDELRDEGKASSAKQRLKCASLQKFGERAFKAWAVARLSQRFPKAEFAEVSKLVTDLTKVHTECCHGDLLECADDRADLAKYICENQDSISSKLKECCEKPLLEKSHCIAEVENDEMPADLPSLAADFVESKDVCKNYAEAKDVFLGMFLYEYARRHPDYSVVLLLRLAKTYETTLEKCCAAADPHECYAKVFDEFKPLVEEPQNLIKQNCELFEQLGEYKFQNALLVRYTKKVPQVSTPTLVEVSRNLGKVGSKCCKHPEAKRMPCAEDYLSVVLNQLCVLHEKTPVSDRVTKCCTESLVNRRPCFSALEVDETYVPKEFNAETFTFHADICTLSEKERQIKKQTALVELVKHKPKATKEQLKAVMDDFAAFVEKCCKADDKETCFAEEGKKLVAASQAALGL

MDA-MB-468 = test: Antitumor activity against human MDA-MB-468 cells assessed as cell growth inhibition at 10 uM incubated for 48 hrs by sulforhodamine B assay; format: functional; conditions: read-out: GI
DNA = test: Binding affinity to human DNA in blood assessed as DNA intercalation by measuring hypochromic shift at 398 nm at 20 uM by UV-Vis spectral titration analysis; format: tissue-based
Albumin [5] = target: T2, Albumin (Bos taurus, UniProt P02769); test: Binding affinity to bovine serum albumin assessed as binding constant at 318K by fluorescence emission spectrum analysis; format: ADME, cell-free; conditions: cattle
T2 sequence (P02769 whole entry): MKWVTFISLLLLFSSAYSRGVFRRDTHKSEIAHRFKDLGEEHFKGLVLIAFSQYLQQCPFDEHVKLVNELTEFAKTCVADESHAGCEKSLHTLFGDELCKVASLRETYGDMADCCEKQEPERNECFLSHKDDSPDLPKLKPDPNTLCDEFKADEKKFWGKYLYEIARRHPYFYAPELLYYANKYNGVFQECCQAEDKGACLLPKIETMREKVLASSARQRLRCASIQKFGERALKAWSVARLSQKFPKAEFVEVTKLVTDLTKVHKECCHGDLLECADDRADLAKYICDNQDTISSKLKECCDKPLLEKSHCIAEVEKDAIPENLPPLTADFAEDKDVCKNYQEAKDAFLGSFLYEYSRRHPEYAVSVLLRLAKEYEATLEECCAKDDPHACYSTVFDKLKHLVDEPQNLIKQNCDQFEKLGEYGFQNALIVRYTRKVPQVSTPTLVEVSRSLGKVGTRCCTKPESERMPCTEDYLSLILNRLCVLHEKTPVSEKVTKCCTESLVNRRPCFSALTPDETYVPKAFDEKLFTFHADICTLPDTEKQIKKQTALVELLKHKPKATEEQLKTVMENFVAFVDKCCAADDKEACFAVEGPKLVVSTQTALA

MCF7 = test: Antitumor activity against human MCF7 cells assessed as cell growth inhibition at 10 uM incubated for 48 hrs by sulforhodamine B assay; format: functional; conditions: read-out: GI
SK-OV-3 = test: Antitumor activity against human SK-OV-3 cells assessed as cell growth inhibition at 10 uM incubated for 48 hrs by sulforhodamine B assay; format: functional; conditions: read-out: GI
Albumin [6] = target: T1, Albumin; test: Binding affinity to human serum albumin assessed as decrease in emission peak intensity band at 348 nm at 0-13 uM by fluorescence emission spectroscopy; format: ADME, cell-free; conditions: 0.348 µM
Calf thymus DNA [7] = test: Binding affinity to calf thymus DNA assessed as hypochromic effect by measuring decrease in intensity of absorption band at 398 nm at 20 uM by UV-Vis absorption spectrophotometric method; conditions: Bos taurus
SW-620 = test: Antitumor activity against human SW620 cells assessed as cell growth inhibition at 10 uM incubated for 48 hrs by sulforhodamine B assay; conditions: SW-620, 48 h, read-out: GI
Albumin [8] = target: T2, Albumin; test: Binding affinity to bovine serum albumin assessed as increase in absorption intensity at 280 nm at 0-10 uM by UV-vis absorption spectral titration analysis; format: ADME, cell-free; conditions: cattle
Albumin [9] = target: T1, Albumin; test: Binding affinity to human serum albumin assessed as quenching constant by fluorescence emission spectroscopy; format: ADME, cell-free
Albumin [10] = target: T1, Albumin; test: Binding affinity to human serum albumin assessed as appearance of new absorption band at 400 nm at 0-7 uM by UV-Vis absorption spectroscopy; format: ADME, cell-free; conditions: 0.4 µM
IGROV-1 = test: Antitumor activity against human IGROV1 cells assessed as cell growth inhibition at 10 uM incubated for 48 hrs by sulforhodamine B assay; format: functional; conditions: read-out: GI
UACC-62 = test: Antitumor activity against human UACC-62 cells assessed as cell growth inhibition at 10 uM incubated for 48 hrs by sulforhodamine B assay; format: functional; conditions: read-out: GI
Calf thymus DNA [11] = test: Binding affinity to calf thymus DNA assessed as bimolecular quenching constant by ethidium bromide competitive displacement assay; format: nucleic-acid assay; conditions: Bos taurus
OVCAR-4 = test: Antitumor activity against human OVCAR-4 cells assessed as cell growth inhibition at 10 uM incubated for 48 hrs by sulforhodamine B assay; format: functional; conditions: read-out: GI
MDA-MB-435 = test: Antitumor activity against human MDA-MB-435 cells assessed as cell growth inhibition at 10 uM incubated for 48 hrs by sulforhodamine B assay; format: functional; conditions: read-out: GI
Albumin [12] = target: T2, Albumin; test: Binding affinity to bovine serum albumin assessed as quenching constant at 308K by fluorescence emission spectrum analysis; format: ADME, cell-free; conditions: cattle
BT-549 = test: Antitumor activity against human BT-549 cells assessed as cell growth inhibition at 10 uM incubated for 48 hrs by sulforhodamine B assay; format: functional; conditions: read-out: GI
K562 = test: Antitumor activity against human K562 cells assessed as cell growth inhibition at 10 uM incubated for 48 hrs by sulforhodamine B assay; format: functional; conditions: read-out: GI
A549 [13] = test: Cytotoxicity against human A549/ATCC assessed as reduction in cell viability at 0.1 uM after 48 hrs by MTT assay; format: functional
NCI-H23 = test: Antitumor activity against human NCI-H23 cells assessed as cell growth inhibition at 10 uM incubated for 48 hrs by sulforhodamine B assay; format: functional; conditions: read-out: GI
UO-31 = test: Antitumor activity against human UO-31 cells assessed as cell growth inhibition at 10 uM incubated for 48 hrs by sulforhodamine B assay; format: functional; conditions: read-out: GI
HEK293 [14] = test: Cytotoxicity against human HEK293 assessed as reduction in cell viability at 0.01 uM after 48 hrs by MTT assay; format: cell-based; conditions: hek293, 48 h
A549 [15] = test: Cytotoxicity against human A549/ATCC assessed as reduction in cell viability at 10 uM after 48 hrs by MTT assay; format: functional
OVCAR-3 = test: Antitumor activity against human OVCAR-3 cells assessed as cell growth inhibition at 10 uM incubated for 48 hrs by sulforhodamine B assay; format: functional; conditions: read-out: GI
Hs-578T = test: Antitumor activity against human HS 578T cells assessed as cell growth inhibition at 10 uM incubated for 48 hrs by sulforhodamine B assay; format: functional; conditions: read-out: GI
KM12 = test: Antitumor activity against human KM12 cells assessed as cell growth inhibition at 10 uM incubated for 48 hrs by sulforhodamine B assay; format: functional; conditions: read-out: GI
SK-MEL-28 = test: Antitumor activity against human SK-MEL-28 cells assessed as cell growth inhibition at 10 uM incubated for 48 hrs by sulforhodamine B assay; format: functional; conditions: read-out: GI
ACHN = test: Antitumor activity against human ACHN cells assessed as cell growth inhibition at 10 uM incubated for 48 hrs by sulforhodamine B assay; format: functional; conditions: read-out: GI
A549 [16] = test: Cytotoxicity against human A549/ATCC assessed as reduction in cell viability after 48 hrs by MTT assay; format: functional, cell-based; conditions: A549, 48 h
Albumin [17] = target: T2, Albumin; test: Binding affinity to bovine serum albumin assessed as spontaneous interaction by measuring change in gibbs free energy at 298K by thermodynamic based analysis; format: ADME, cell-free; conditions: cattle
Calf thymus DNA [18] = test: Binding affinity to calf thymus DNA assessed as quenching in emission band at 600 nm by ethidium bromide competitive displacement assay; format: nucleic-acid assay; conditions: Bos taurus
Albumin [19] = target: T2, Albumin; test: Binding affinity to bovine serum albumin assessed as hydrophobic interaction by measuring change in entropy at 298K by thermodynamic based analysis; format: ADME, cell-free; conditions: cattle
Malme-3M = test: Antitumor activity against human MALME-3M cells assessed as cell growth inhibition at 10 uM incubated for 48 hrs by sulforhodamine B assay; format: functional; conditions: read-out: GI
Calf thymus DNA [20] = test: Binding affinity to calf thymus DNA assessed as quenching constant by fluorescence emission spectroscopic analysis; format: nucleic-acid assay; conditions: Bos taurus
SR = test: Antitumor activity against human SR cells assessed as cell growth inhibition at 10 uM incubated for 48 hrs by sulforhodamine B assay; format: functional; conditions: read-out: GI

For `O=C1NC(=O)/C(=C/c2ccc(-c3nc4c5ccccc5c5ccccc5c4[nH]3)cc2)S1`, the inhibition of growth at 10 µM (SF-268) was 12.3%, the Activity (HEK293 [1]) was 9% and the inhibition of growth at 10 µM (NCI-H522) was 47.6%. For the same molecule, the Ratio [2] was 2, the inhibition of growth at 10 µM (HCT-15) was 50% and the Activity (A549 [3]) was 90%. The Activity (Albumin [4]) was “Active”, the inhibition of growth at 10 µM (MDA-MB-468) was 51.7% and the Activity (DNA) was “Active”. For the same molecule, the Kb (Albumin [5]) was 2.97 10^6/M, the inhibition of growth at 10 µM (MCF7) was 46.1% and the inhibition of growth at 10 µM (SK-OV-3) was < 10%. For the same molecule, the Activity (Albumin [6]) was “Active”, the Activity (Calf thymus DNA [7]) was “Active” and the inhibition of growth at 10 µM (SW-620) was 22.8%. The Activity (Albumin [8]) was “Active”, the Kq (Albumin [9]) was 3.01 10^14/M/s and the Activity (Albumin [10]) was “Active”. For the same molecule, the inhibition of growth at 10 µM (IGROV-1) was < 10%, the inhibition of growth at 10 µM (UACC-62) was 30.3% and the Kq (Calf thymus DNA [11]) was 6.53 10^12/M/s. The inhibition of growth at 10 µM (OVCAR-4) was < 10%, the inhibition of growth at 10 µM (MDA-MB-435) was 67.4% and the Kq (Albumin [12]) was 8.15 10^13/M/sec. For the same molecule, the inhibition of growth at 10 µM (BT-549) was 63.7%, the inhibition of growth at 10 µM (K562) was 68.1% and the Activity (A549 [13]) was 59%. It also gave an inhibition of growth at 10 µM (NCI-H23) of 29%, an inhibition of growth at 10 µM (UO-31) of 25.5% and an Activity (HEK293 [14]) of 4%. For the same molecule, the Activity (A549 [15]) was 78%, the inhibition of growth at 10 µM (OVCAR-3) was 21.3% and the inhibition of growth at 10 µM (Hs-578T) was 17.6%. For the same molecule, the inhibition of growth at 10 µM (KM12) was 43.9%, the inhibition of growth at 10 µM (SK-MEL-28) was 19.1% and the inhibition of growth at 10 µM (ACHN) was 33.4%. For the same molecule, the IC50 (A549 [16]) was 1700 nM, the deltaG (Albumin [17]) was -9 kcal/mol and the Activity (Calf thymus DNA [18]) was “Active”. The deltaS (Albumin [19]) was 20.43 cal/mol.K, the inhibition of growth at 10 µM (Malme-3M) was 14.8% and the Kq (Calf thymus DNA [20]) was 1.88 10^11/M/s. It also gave an inhibition of growth at 10 µM (SR) of 79.2%.
